# Experimental data as given in US20130129675A1, “INTERFERON THERAPIES IN COMBINATION WITH BLOCKADE OF STAT3 ACTIVATION” (BOARD OF REGENTS, THE UNIVERSITY OF TEXAS SYSTEM, priority 2009, published 2013).
# Tests used:
# [1] = system: intracerebral B16 melanoma; assay: Survival of mice with established intracerebral B16 melanoma; format: in vivo, C57BL/6J mice; conditions: for median overall survival: WP1193 30 mg/kg oral gavage (sub-therapeutic) from day 3, IFN-α plasmid i.v. day 5, control 17 days; for increase in median survival: versus control (17 days)
# Excerpt: For the in vivo experiments, we used 4- to 6-week-old female C57BL/6J mice maintained in the M. D. Anderson Cancer Center Isolation Facility in accordance with Laboratory Animal Resources Commission standards and conducted according to an Institutional Animal Care and Use Committee-approved protocol, 08-06-11831. A mouse was euthanized when it became unable to reach food or water. To induce intracerebral tumors in C57BL/6J mice, B16 cells were collected in logarithmic growth phase, washed twice with PBS, mixed with an equal volume of 10% methyl cellulose and RPMI 1640 medium and loaded into a 250-μl syringe (Hamilton, Reno, Nev.) with an attached 25-gauge needle. The needle was positioned 2 mm to the right of bregma and 4 mm below the surface of the skull at the coronal suture using a stereotactic frame (Kopf Instruments, Tujunga, Calif.). The intracerebral tumorigenic dose for the B16 cells was 5×10^2 in a total volume of 5 μl.
# pORF.IFN-α (IFN-α) plasmid was obtained from Invivogen (29). Hydrodynamic gene transfer (HGT) consisted of a single intravenous (i.v.) injection of 3 μg endotoxin-free pORF plasmid encoding murine IFN-α or pORF control plasmid DNA (InvivoGen, San Diego, Calif.) in 2 ml of saline as previously described. Liu F, Song Y, Liu D, Hydrodynamics-Based Transfection In Animals By Systemic Administration Of Plasmid DNA, Gene Therapy 1999; 6:1258-66. […] Sikora A G, Jaffarzad N, Hailemichael Y, Gelbard A, Stonier S W, Schluns K S, Frasca L, Lou Y, Liu C, Andersson H A, Hwu P, Overwijk W W, IFN-A Enhances Peptide Vaccine-Induced CD8+ T Cell Numbers, Effector Function, And Antitumor Activity, J Immunol 2009, 182:7398-407. The STAT3 inhibitor, WP1193, was synthesized and supplied by Dr. Priebe (M. D. Anderson). WP1193, a third-generation analogue inhibitor of the p-STAT3 pathway, was dissolved in a mixture of 20 parts dimethylsulfoxide (DMSO) to 80 parts polyethylene glycol (PEG) 300 (Sigma-Aldrich, St Louis, Mo.) at titered concentrations and delivered in a final volume of 100 μL. Prior to use, WP1193 was stored as a lyophilized powder at 4° C.
# Treatment for the established intracerebral tumors was with WP1193 (starting on day 3) and/or IFN-α (starting on day 5) after B16 tumor cell challenge. Mice were injected intravenously (i.v.) with 2 ml (3 μg) of IFN-α plasmid in saline once. Mice were treated with a sub-therapeutic dose of 30 mg/kg of WP1193 by oral gavage (o.g.) in a vehicle of DMSO/PEG300 (20 parts/80 parts) on […], on a […]. schedule (5 days on, 2 days off). When mice were treated in the therapeutic range of 40 mg/kg, >80% of animals survived long-term (more than 70 days) and synergy with IFN-α could not be assessed. Ten mice per experimental group were used, including treatment with the DMSO/PEG300 vehicle alone in the control group.
# Kaplan-Meier product-limit survival probability estimates of overall survival were calculated and log-rank tests were performed to compare overall survival between treatment groups and the control arm. Kaplan E L, Meier P., Nonparametric Estimation From Incomplete Observations, J Am Stat Assoc 1958; 53:457-81; Mantel N., Evaluation Of Survival Data And Two New Rank Order Statistics Arising In Its Consideration, Cancer Chemother Rep 1966; 50:163-70 Ex-vivo or in vitro data are presented as means±standard errors (SEs) of three repeated experiments. Student's t test was performed. A P value below 0.05 was considered statistically significant. […]
# [2] = system: B16 target cells (NK1.1+CD3− NK effector cells); assay: NK cell cytotoxicity assay against melanoma cells; format: cell-based, mice; conditions: WP1193 2 μM, IFN-α 20 ng/ml, 48 h, control 8.8
# Protocol: Splenocytes were prepared as described above. NK1.1+CD3− NK effector cells or CD3+CD8+ T effector cells were sorted from splenocytes on a FACSAria Cell Sorter (BD Biosciences) with FITC-conjugated anti-mouse NK1.1 (eBioscience), PE-conjugated anti-CD3, and allophycocyanin (APC)-conjugated anti-CD8 antibodies (Miltenyi Biotec, Auburn, Calif.). B16 target cells were prepared as described above. The ratio of NK1.1+CD3− NK effector cells or CD8+ T effector cells to B16 target cells was 10:1 and 5:1, respectively. In the presence of NK1.1+CD3− NK cells or CD8+ T cells, treatment groups consisted of B16 target cells alone; B16 cells with 2 μM of WP1193; B16 cells with 20 ng/ml of IFN-α; B16 cells with 2 µM of WP1193 and 20 ng/ml of IFN-α. After 48 hours of incubation, the CFSE-labeled B16 melanoma cells were removed from the plates with trypsin and analyzed by FACS. Then, B16 cells were stained with PI (BD Biosciences) to distinguish viable cells from nonviable cells. B16 cells that were stained with CFSE and PI were considered nonviable. Flow cytometric acquisition of the B16 target cells was performed with a FACSCalibur flow cytometer (BD Biosciences), and data analysis was performed using FlowJo software (TreeStar). […]
Compound,median overall survival [1] [days],animals surviving long-term (more than 70 days) ([1]; therapeutic range of 40 mg/kg) [%],increase in median survival [1] [%],% of B16 Killimg [2] [%]
"N#C/C(=C\c1cccc(Br)n1)C(=O)N[C@H](c1ccccc1)C1CC1 [WP1193, (S,E)-3-(6-bromopyridin-2-yl)-2-cyano-N-(cyclopropyl(phenyl)methyl)acrylamide]",18.5,> 80,9,10.9
IFN-α,27.5,–,62,12.5
